# In DBAASP:
# How the values were obtained:
# Test in all cases: ≥ marks a high value that may be exact or a test limit, other limits are often not marked, values filed in µg/mL are converted to µM
# Escherichia coli B = system: Escherichia coli B
# Bacillus subtilis 168 = system: Bacillus subtilis 168
# Pseudomonas aeruginosa = system: Pseudomonas aeruginosa
# Staphylococcus aureus = system: Staphylococcus aureus
# [1] = system: Candida albicans F7-39/IDE99
# [2] = system: Staphylococcus aureus ATCC BAA-1556
compound,measurement,setting,value
CC[C@H](C)[C@H](NC(=O)[C@H](CCCCN)NC(=O)[C@H](CCCCN)NC(=O)[C@H](Cc1c[nH]c2ccccc12)NC(=O)[C@H](CC(N)=O)NC(=O)[C@@H](N)C(C)C)C(=O)N[C@@H](CC(C)C)C(=O)NCC(=O)N[C@@H](CCCCN)C(=O)N[C@H](C(=O)N[C@H](C(=O)N[C@@H](CCCCN)C(=O)N[C@H](C(=O)N[C@@H](C)C(=O)N[C@@H](CCCCN)C(N)=O)C(C)C)[C@@H](C)CC)[C@@H](C)CC [VNWKKILGKIIKVAK],MIC,Escherichia coli B,1.4 µM
same,MIC,Bacillus subtilis 168,0.7 µM
same,MIC,Pseudomonas aeruginosa,14.4 µM
same,MIC,Staphylococcus aureus,9 µM
same,MIC,[1],10 µM
CC(C)C[C@H](NC(=O)[C@H](CC(C)C)NC(=O)[C@H](CCCCN)NC(=O)[C@H](CC(C)C)NC(=O)[C@H](CC(C)C)NC(=O)[C@H](CC(C)C)NC(=O)[C@H](CC(C)C)NC(=O)[C@H](CC(C)C)NC(=O)[C@@H](N)CC(C)C)C(N)=O [LLLLLLKLL],MIC,[2],≥ 100 µM
CC(C)C[C@H](NC(=O)[C@H](Cc1c[nH]c2ccccc12)NC(=O)[C@H](CCCN=C(N)N)NC(=O)[C@H](CC(C)C)NC(=O)[C@H](Cc1c[nH]c2ccccc12)NC(=O)[C@H](Cc1c[nH]c2ccccc12)NC(=O)[C@H](CC(C)C)NC(=O)[C@H](Cc1c[nH]c2ccccc12)NC(=O)[C@@H](N)CC(C)C)C(N)=O [LWLWWLRWL],MIC,[2],3.12 µM
CC[C@H](C)[C@H](NC(=O)[C@H](Cc1cnc[nH]1)NC(=O)[C@H](CCCCN)NC(=O)[C@H](CC(C)C)NC(=O)[C@H](CC(C)C)NC(=O)[C@@H](NC(=O)[C@H](CCSC)NC(=O)[C@H](Cc1c[nH]c2ccccc12)NC(=O)[C@H](CCCCN)NC(=O)CN)[C@@H](C)O)C(=O)N[C@@H](CC(C)C)C(=O)N[C@@H](CCCCN)C(N)=O [GKWMTLLKHILK],MIC,Escherichia coli B,2.7 µM
same,MIC,Bacillus subtilis 168,1.3 µM
same,MIC,Pseudomonas aeruginosa,38.3 µM
same,MIC,Staphylococcus aureus,5.3 µM
same,MIC,[1],7 µM
CC[C@H](C)[C@H](NC(=O)[C@H](Cc1c[nH]c2ccccc12)NC(=O)[C@H](CCCN=C(N)N)NC(=O)[C@H](CCCN=C(N)N)NC(=O)[C@H](Cc1c[nH]c2ccccc12)NC(=O)[C@@H](N)CCCCN)C(=O)N[C@@H](CCCN=C(N)N)C(=O)N[C@@H](Cc1c[nH]c2ccccc12)C(N)=O [KWRRWIRW],MIC,[2],12.5 µM
CC(C)C[C@H](NC(=O)[C@H](CCCCN)NC(=O)[C@H](CCCCN)NC(=O)[C@H](CC(C)C)NC(=O)[C@H](CC(C)C)NC(=O)[C@H](CC(C)C)NC(=O)[C@H](CC(C)C)NC(=O)[C@H](CC(C)C)NC(=O)[C@@H](N)CC(C)C)C(N)=O [LLLLLLKKL],MIC,[2],≥ 100 µM
CC(C)C[C@H](NC(=O)[C@H](CC(C)C)NC(=O)[C@H](Cc1c[nH]c2ccccc12)NC(=O)[C@H](CCCCN)NC(=O)[C@H](CC(C)C)NC(=O)[C@H](CC(C)C)NC(=O)[C@H](CCCCN)NC(=O)[C@@H](N)CCCCN)C(=O)N[C@@H](CCCCN)C(N)=O [KKLLKWLLK],MIC,[2],≥ 100 µM
CC(C)C[C@H](NC(=O)[C@H](CC(C)C)NC(=O)[C@H](CC(C)C)NC(=O)[C@H](CC(C)C)NC(=O)[C@H](CCCCN)NC(=O)[C@H](CC(C)C)NC(=O)[C@H](CC(C)C)NC(=O)[C@H](CC(C)C)NC(=O)[C@@H](N)CCCCN)C(N)=O [KLLLKLLLL],MIC,[2],≥ 100 µM
CC(C)C[C@H](NC(=O)[C@H](Cc1c[nH]c2ccccc12)NC(=O)[C@H](CCCN=C(N)N)NC(=O)[C@H](CC(C)C)NC(=O)[C@H](Cc1c[nH]c2ccccc12)NC(=O)[C@H](Cc1c[nH]c2ccccc12)NC(=O)[C@@H](N)CC(C)C)C(N)=O [LWWLRWL],MIC,[2],12.5 µM
